The target in one experiment is T1, Leucine aminopeptidase (Plasmodium falciparum 3D7, UniProt Q8IL11).
T1 sequence (Q8IL11 whole entry): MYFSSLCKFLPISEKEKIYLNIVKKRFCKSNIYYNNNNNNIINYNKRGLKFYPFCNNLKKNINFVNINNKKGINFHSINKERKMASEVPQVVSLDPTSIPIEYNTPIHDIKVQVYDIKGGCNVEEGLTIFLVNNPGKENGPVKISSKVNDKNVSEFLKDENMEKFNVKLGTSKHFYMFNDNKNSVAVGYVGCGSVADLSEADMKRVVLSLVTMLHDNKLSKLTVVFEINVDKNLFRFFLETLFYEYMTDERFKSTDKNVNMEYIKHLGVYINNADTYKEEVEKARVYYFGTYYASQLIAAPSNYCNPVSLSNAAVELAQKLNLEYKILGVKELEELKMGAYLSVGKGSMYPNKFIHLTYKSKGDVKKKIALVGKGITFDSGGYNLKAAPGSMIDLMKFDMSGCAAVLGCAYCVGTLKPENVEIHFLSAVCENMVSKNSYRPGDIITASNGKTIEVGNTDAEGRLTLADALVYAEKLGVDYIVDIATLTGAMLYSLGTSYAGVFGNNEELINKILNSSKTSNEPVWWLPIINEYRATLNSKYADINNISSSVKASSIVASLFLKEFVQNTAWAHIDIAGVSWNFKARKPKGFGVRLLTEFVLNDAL
Nature of the experiment: P. falciparum M17LAP inhibitors, primary screen, biochemical, fluorogenic H-Leu-NHMec substrate, 1536-well (AID 1619). It counts as functional.

For the next experiment, the target named is T2, Bcl-2-like protein 10 (Homo sapiens, UniProt Q9HD36).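 Note: fluorescence polarization from a fluorescein-labelled TR3 peptide binding purified Bcl-B.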
T2 sequence (Q9HD36 whole entry): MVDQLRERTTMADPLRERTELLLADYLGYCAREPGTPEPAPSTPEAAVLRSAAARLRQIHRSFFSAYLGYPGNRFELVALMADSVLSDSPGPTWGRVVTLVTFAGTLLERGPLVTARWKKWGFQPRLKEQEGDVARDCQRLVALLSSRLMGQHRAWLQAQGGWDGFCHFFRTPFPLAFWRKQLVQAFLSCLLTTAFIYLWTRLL
Nature of the experiment: Bcl-B/TR3 peptide binding disruption – biochemical, fluorescence polarization, FITC-TR3 peptide, selectivity assay for Bfl-1 inhibitor project, primary screen (AID 748). (Polarisation of emitted light reports the rotation of a fluorescent probe.)

The target of a further experiment is Aspartyl aminopeptidase (Plasmodium falciparum 3D7, UniProt Q8I2J3).
In a further experiment the target is Procathepsin L (Homo sapiens, UniProt P07711).
Chain of Procathepsin L (P07711 whole entry): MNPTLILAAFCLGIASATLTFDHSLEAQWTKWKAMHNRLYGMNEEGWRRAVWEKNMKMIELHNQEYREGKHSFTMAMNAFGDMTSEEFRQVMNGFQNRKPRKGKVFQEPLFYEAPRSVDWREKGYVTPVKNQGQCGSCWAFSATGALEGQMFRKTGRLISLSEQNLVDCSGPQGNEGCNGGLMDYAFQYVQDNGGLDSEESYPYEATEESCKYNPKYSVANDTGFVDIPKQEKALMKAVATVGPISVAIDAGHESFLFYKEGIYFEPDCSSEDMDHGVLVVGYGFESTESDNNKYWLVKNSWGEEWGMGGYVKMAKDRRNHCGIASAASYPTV
The target in a further experiment is Large T antigen (Simian virus 40, UniProt P03070). It counts as functional, Betapolyomavirus macacae.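 Note: Confirmatory-stage PubChem screen for compounds that inhibit SV40 T antigen.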
Experiment [1] has as its target T3, Estrogen receptor beta (Homo sapiens, UniProt Q92731).
Experiment [2] deals with T3, Estrogen receptor beta. The experiment can be described thus: blockers of SRC-3 recruitment to ERβ – biochemical, ELISA, streptavidin-HRP readout, orthogonal assay, confirmation (AID 1060). For orientation: In an ELISA, binding on a coated surface is turned into a signal by an enzyme label.
The nature of experiment [3]: luciferase reporter signal suppression in cells – H4 neuroglioma cells, luminescence, dose response (AID 1990). It counts as functional, cell-based. (In a reporter assay the amount or activity of a reporter protein is the signal.)
The nature of experiment [4]: luciferase reporter signal reduction – luminescence, H4-C neuroglioblastoma cells, dose response (AID 2458).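 Note: H4 neuroglioblastoma cells stably carrying a luciferase reporter gene fusion.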 It counts as functional, cell-based.
Experiment [5] concerns BJ. Nature of the experiment: BJ-TERT fibroblast viability loss – cell-based, RAS-independent, luminescence, dose response (AID 1933). It counts as functional. Conditions: Homo sapiens.
A short description of a further experiment: cells. It counts as functional, cell-based.
Experiment [6] is described as follows: Luminescence Cell-Based Dose Response HTS to Identify Inhibitors of 5'UTR Stem-Loop Driven Prion Protein mRNA Translation in H4 Neuroglioblastoma Cells. [Related pubchem assays: 1827 (Project Summary), 1813 (Primary HTS)]. It counts as functional.
The nature of experiment [7]: alpha-synuclein stem-loop luciferase translation blockers – H4 neuroglioma cells, luminescence, confirmation (AID 1988). It counts as functional, cell-based.
Experiment [8] relates to BJ. Nature of the experiment: cells. The note with it: Homo sapiens. It counts as functional, cell-based.
The test system of experiment [9] is BJ. Nature of the experiment: BJ-TERT-LT-ST fibroblast viability loss – cell-based, RAS-independent, luminescence, dose response (AID 1935).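 Note: BJ fibroblasts immortalized with TERT plus LT and ST oncogenes.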 It counts as functional. Conditions: Homo sapiens.
The nature of experiment [10]: DRD fibroblast viability loss – cell-based, non-viral oncogenic, luminescence, dose response (AID 1934). It counts as functional. Conditions: Homo sapiens.
The nature of experiment [11]: alpha-synuclein stem-loop translation blockers – luminescence, H4 neuroglioblastoma cells, dose confirmation, confirmation (AID 2454).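 Note: H4 neuroglioblastoma cells carrying an alpha-synuclein 5'UTR luciferase reporter; potency for inhibition of the luciferase signal.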 It counts as functional, cell-based.
Experiment [12] in a line: HEK-293T viability loss after treatment – luminescence, T-cell screen hits, cytotoxicity control for TCR NF-kB inhibitor project, dose response (AID 489026).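 Note: cells exposed to compound about 14 hours before the viability readout.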 It counts as functional, cell-based.
For the next experiment, the target named is Paired box protein Pax-8 (Homo sapiens, UniProt Q06710). The experiment can be described thus: PAX8 transcriptional activity inhibition in RMG-I – RMG-I cells, luciferase, cherry-pick, dose response (AID 687027).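 Note: luciferase reporter driven by Pax8 target thyroperoxidase promoter measured by SteadyGlo luminescence.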 It counts as functional, cell-based.
Chain of Paired box protein Pax-8 (Q06710 whole entry): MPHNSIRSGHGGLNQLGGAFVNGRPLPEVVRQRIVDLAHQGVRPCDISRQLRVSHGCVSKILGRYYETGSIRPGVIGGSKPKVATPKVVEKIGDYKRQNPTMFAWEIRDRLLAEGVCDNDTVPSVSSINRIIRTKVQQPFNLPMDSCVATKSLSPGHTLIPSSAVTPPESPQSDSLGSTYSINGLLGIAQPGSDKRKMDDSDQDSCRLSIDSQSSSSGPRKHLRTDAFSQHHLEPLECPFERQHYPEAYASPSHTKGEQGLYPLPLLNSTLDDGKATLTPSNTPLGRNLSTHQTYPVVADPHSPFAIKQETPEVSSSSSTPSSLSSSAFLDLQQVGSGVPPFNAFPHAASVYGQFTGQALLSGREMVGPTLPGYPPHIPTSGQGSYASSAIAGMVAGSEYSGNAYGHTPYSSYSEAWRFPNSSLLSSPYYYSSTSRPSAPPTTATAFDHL
The target of experiment [13] is Photoreceptor-specific nuclear receptor (Homo sapiens, UniProt Q9Y5X4). It counts as functional.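 Note: potency for compounds that break the NR2E3 corepressor complex and count as activators.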
For the next experiment, the target named is Galanin receptor type 2 (Homo sapiens, UniProt O43603). The experiment can be described thus: Dose Response cell-based high-throughput screening assay to identify agonists of galanin receptor 2 (GALR2). [Related pubchem assays: 864 ]. It counts as functional.
Chain of Galanin receptor type 2 (O43603 whole entry): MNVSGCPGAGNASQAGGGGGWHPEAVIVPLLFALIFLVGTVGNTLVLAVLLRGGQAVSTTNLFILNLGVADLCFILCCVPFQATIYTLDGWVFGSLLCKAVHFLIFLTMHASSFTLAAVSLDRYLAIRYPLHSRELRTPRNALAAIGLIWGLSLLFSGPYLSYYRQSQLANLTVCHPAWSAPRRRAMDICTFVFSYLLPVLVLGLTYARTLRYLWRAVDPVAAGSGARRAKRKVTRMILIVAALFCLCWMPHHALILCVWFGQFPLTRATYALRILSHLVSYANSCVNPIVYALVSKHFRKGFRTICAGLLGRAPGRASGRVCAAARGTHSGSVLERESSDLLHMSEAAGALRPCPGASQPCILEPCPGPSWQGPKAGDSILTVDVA
In experiment [14] the target is Peroxisome proliferator-activated receptor gamma/Nuclear receptor corepressor 2 (Homo sapiens, UniProt P37231+Q9Y618). It counts as functional.
Chain of Peroxisome proliferator-activated receptor gamma/Nuclear receptor corepressor 2 (P37231 whole entry): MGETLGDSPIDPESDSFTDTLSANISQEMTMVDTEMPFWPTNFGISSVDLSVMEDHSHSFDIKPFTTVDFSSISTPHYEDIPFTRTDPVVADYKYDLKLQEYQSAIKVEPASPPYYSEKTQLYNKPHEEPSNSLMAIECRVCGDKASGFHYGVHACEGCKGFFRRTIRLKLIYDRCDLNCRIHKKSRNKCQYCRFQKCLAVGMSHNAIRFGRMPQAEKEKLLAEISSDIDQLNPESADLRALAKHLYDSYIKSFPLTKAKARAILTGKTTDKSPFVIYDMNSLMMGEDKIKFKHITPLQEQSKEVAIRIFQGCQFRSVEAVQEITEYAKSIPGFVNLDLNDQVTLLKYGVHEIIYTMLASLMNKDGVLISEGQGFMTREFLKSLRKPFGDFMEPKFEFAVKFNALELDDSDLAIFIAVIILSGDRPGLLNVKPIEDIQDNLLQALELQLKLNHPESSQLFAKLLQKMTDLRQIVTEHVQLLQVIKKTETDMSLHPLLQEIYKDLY
Chain of Peroxisome proliferator-activated receptor gamma/Nuclear receptor corepressor 2 (Q9Y618 whole entry): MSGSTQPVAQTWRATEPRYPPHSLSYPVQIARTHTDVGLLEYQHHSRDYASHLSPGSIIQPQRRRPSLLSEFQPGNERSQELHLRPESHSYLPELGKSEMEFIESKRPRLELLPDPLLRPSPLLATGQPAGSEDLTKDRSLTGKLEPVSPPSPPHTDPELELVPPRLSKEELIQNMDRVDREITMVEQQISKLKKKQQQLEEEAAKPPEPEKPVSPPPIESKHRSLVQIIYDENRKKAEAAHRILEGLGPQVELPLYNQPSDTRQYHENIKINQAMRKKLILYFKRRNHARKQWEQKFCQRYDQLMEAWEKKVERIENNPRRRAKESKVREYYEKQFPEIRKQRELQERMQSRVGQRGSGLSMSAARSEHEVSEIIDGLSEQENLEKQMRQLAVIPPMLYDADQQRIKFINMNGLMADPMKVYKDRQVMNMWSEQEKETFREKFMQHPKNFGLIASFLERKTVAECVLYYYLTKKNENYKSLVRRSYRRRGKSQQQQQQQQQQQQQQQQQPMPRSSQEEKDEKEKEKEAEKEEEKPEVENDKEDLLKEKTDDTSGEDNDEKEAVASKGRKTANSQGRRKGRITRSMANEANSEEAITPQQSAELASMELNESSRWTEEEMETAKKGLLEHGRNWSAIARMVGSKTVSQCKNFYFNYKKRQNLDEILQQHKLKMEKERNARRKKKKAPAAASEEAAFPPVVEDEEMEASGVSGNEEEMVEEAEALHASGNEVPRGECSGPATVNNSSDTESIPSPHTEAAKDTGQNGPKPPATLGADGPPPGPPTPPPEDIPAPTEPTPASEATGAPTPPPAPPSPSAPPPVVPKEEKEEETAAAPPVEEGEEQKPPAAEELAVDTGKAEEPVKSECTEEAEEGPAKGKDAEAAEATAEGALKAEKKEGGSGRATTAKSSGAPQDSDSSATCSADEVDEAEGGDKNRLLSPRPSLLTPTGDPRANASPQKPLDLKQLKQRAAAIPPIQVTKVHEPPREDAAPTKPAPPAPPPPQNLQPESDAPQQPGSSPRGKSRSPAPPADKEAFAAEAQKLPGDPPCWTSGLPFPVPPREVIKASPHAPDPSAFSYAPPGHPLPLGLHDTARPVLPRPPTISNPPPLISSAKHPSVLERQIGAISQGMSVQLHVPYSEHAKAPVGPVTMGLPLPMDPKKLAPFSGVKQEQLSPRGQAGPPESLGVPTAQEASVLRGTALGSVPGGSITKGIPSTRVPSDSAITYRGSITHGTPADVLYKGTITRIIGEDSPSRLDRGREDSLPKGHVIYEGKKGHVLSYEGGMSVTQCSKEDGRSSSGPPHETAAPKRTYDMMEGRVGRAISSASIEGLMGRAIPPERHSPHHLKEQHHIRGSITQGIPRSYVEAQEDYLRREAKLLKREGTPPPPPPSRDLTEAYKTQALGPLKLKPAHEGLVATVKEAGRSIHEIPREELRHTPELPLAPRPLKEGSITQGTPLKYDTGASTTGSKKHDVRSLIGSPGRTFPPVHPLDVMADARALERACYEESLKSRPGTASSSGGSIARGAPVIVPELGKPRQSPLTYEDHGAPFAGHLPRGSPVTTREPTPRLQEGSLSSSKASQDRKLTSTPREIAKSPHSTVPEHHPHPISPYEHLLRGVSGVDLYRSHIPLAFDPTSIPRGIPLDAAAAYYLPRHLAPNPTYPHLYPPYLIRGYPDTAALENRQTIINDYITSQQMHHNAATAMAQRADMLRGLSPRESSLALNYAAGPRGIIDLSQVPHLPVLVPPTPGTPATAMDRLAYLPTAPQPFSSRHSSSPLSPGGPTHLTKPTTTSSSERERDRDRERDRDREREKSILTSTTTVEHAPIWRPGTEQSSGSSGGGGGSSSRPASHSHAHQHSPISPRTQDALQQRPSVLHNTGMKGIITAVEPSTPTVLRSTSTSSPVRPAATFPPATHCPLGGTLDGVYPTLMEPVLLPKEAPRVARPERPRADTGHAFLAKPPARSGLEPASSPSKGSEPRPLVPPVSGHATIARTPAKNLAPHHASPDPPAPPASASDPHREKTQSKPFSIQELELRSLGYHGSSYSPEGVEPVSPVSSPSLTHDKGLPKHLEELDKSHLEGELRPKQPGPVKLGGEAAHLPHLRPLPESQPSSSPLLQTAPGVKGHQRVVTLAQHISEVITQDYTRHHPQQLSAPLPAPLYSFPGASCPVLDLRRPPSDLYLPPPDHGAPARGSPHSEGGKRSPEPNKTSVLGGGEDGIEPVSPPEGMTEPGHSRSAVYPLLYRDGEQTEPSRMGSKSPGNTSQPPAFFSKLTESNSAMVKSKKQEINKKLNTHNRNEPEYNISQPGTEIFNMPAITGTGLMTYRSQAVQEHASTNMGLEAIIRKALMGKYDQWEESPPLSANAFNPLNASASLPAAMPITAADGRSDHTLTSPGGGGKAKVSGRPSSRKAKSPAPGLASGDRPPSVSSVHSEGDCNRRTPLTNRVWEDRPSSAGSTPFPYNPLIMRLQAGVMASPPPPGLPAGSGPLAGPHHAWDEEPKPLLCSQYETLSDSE
In another experiment the target is Protein Rev (Human immunodeficiency virus type 1 group M subtype B (isolate WMJ22)(HIV-1), UniProt P05866). The experiment can be described thus: inhibitors of Rev protein–RRE RNA complex – biochemical, protein-RNA interaction, dose response (AID 842). More on the design: species or system Human immunodeficiency virus 1.
Chain of Protein Rev (P05866 whole entry): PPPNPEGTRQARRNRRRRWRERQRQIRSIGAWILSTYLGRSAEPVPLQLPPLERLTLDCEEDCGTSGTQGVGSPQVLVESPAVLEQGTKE
A short description of experiment [15]: viability loss in Vero cells – cytotoxicity control for Vif-APOBEC3G degradation inhibitor project, dose response (AID 1117358). It counts as functional. The note with it: Vero.
The next experiment deals with Staphylococcus aureus. Nature of the experiment: Inhibitors of Bacterial Quorum Sensing Structure Activity Relationship (SAR) Analysis: Dose Response Assay. [Related pubchem assays: 700, 527 ]. It counts as functional, organism-based.

Each structure is given as a SMILES string. Calls of active or inactive are those of the source. Where only a bound is given, the exact number is not on record here.

Here are results for five molecules from ChEMBL document CHEMBL1201862, “PubChem BioAssay data set” (2004).

The term IC50 denotes the concentration that gives 50% inhibition. A word on the EC50: it is the concentration that produces a half-maximal response. As a reminder, the AC50 is the midpoint of the concentration-response curve, whichever way the signal moves. For orientation: CC50 means the concentration giving 50% cytotoxicity.

T3 sequence (Q92731 whole entry): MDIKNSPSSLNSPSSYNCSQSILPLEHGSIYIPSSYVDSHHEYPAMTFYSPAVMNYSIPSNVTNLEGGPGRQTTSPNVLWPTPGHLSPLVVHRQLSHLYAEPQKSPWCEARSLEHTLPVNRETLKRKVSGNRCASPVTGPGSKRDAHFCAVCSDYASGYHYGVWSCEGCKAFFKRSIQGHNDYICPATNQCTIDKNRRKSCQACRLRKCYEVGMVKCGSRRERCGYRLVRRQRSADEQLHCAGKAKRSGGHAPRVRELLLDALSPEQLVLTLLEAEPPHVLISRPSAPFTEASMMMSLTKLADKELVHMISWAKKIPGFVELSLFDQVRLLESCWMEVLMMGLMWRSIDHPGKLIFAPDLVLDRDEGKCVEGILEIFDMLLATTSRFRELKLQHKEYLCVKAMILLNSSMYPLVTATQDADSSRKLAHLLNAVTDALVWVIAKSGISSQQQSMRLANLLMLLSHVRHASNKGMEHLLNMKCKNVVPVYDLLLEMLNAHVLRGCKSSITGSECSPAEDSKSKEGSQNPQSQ

In the case of `O=C(CSc1nc(O)c2ccccc2n1)c1ccc(O)c(O)c1`, the half-inhibitory concentration (IC50) on Leucine aminopeptidase is 13 µM (active); at Bcl-2-like protein 10 it was 23.4 µM (active); on Aspartyl aminopeptidase, 1.46 µM (active); on Procathepsin L it was > 59.6 µM (not active); at Large T antigen it was 10.7 µM (active); at Estrogen receptor beta [1], 4.62 µM (active). In addition, the IC50 at Estrogen receptor beta [2] was 0.337 µM (not active).

In the case of `COc1cc2c(c(OC)c1OC)-c1ccc(O)cc1[C@@H](NC(C)=O)CC2` [N-ACETYLCOLCHINOL], the EC50 in experiment [3] is < 0.1 µM (active); in [4] it was 0.088 µM (active); in the experiment with BJ [5], 0.193 µM (active); in the experiment “cells”, 0.1 µM (active); in experiment [6], < 0.1 µM (active); in experiment [7], < 0.1 µM (active). Also, the EC50 is 0.345 µM (inconclusive) in the experiment on BJ [8], 0.146 µM (inconclusive) with BJ [9], 0.201 µM (active) in experiment [10] and 0.072 µM (active) in experiment [11]. In [12], the IC50 is > 80 µM (inactive). Also, the AC50 at Paired box protein Pax-8 is 0.37 µM (active).

Turning to `CCOc1ccc(Br)cc1C(=O)Nc1ccc(C(=O)NCC(C)C)cc1`, the EC50 in experiment [3] is 21.6 µM (active); in [6] it was 18.1 µM (active); in experiment [7] it was > 120 µM (not active); at Galanin receptor type 2 it was > 55.7 µM (not active). In addition, the IC50 in experiment [13] and in experiment [14] was > 39.8 µM (not active) throughout.

Take `CCN(CC)CCNC1=NCCn2c1cc1cc(OC)ccc12`: on Protein Rev, the IC50 is given as > 79.4 µM (not active). Further, the CC50 in experiment [15] was > 40 µM (active).

As for `O=C(O)c1ccccc1Nc1cccc2c1C(=O)c1ccccc1C2=O`, the IC50 with Staphylococcus aureus was 1.05 µM (active).
